Marks after values point to notes of the source that are not given here.
Tests used:
[1] = system: Eimeria acervulina sporozoites; test: In vitro invasion of BHK cells by Eimeria acervulina sporozoites; type: cell-based
Method: (§1) Eineria acervulina sporozoites or Eimeria tenella sporozoites and cultured baby hamster kidney (BHK) cells were prepared by published methods. See Augustine, Avian and Poultry Biology Reviews 1:113-122, 2000. For cell pretreatment, cell cultures were overlaid with dilutions of enzymes as described in Table 11, and examined for morphological changes from 5 to 45 min post overlay. After 45 minutes, the monolayer cultures were washed twice, then inoculated with untreated E. acervulina or E. tenella sporozoites. For application during infection, sporozoites were suspended in the appropriate dilution of the enzyme and inoculated immediately into the cell cultures. After 45 minutes incubation, cultures were fixed, stained, and the invasion was quantified.
(§2) Observations were made looking for changes in gross morphology of sporozoites or cells due to enzyme treatment. At the enzyme levels used in these experiments, no morphological change was noted. The sporozoite invasion of the cultured cells was measured after the two methods of enzyme treatment, as well as without enzyme treatment, by histological staining and microscopy procedures. See Augustine, supra.

[2] = system: Eimeria tenella sporozoites; test: In vitro invasion of BHK cells by Eimeria tenella sporozoites; type: cell-based
Method: as §1, §2

[3] = system: Cryptosporidium; test: SCID mouse model of Cryptosporidium infection; settings: for Parasite load (SD) Day 21 / Parasite load (SD) Day 28 / Parasite load (SD) Day 31 / Percent Inhibition Day 21 / Percent Inhibition Day 28 / Percent Inhibition Day 31: feces
[4] = Application of Enzyme During Infection, Test 1, recombinant PI-PLC 0.0261 U/mL
[5] = Application of Enzyme During Infection, Test 2, B. cereus PI-PLC 0.0403 U/mL, recombinant 0.261 U/mL, listed as PI-PLC from Recombinant B. megateriaum
[6] = Application of Enzyme During Infection, Test 2, recombinant PI-PLC 0.0261 U/mL
[7] = Cell Pretreatment with Enzyme Followed by Wash, Test 1, B. cereus PI-PLC 0.0403 U/mL, recombinant 0.261 U/mL, mannanase 5100 U/mL, listed as PI-PLC from Recombinant B. megateriaum
[8] = Cell Pretreatment with Enzyme Followed by Wash, Test 2, B. cereus PI-PLC 0.0403 U/mL, recombinant 0.261 U/mL, mannanase 5100 U/mL, listed as PI-PLC from Recombinant B. megateriaum
[9] = Cell Pretreatment with Enzyme Followed by Wash, Test 2, recombinant PI-PLC 0.0261 U/mL
[10] = Group A, 90 U/lb in feed, Day 3
[11] = Group A, 90 U/lb in feed, Day 7
[12] = Group A, 90 U/lb in feed, Day 10
[13] = Group A, 90 U/lb in feed, Day 14
[14] = Group A, 90 U/lb in feed, Day 17
[15] = Group A, 90 U/lb in feed, Day 21
[16] = Group A, 90 U/lb in feed, Day 24
[17] = Group B, 30 U/lb in feed, Day 3
[18] = Group B, 30 U/lb in feed, Day 7
[19] = Group B, 30 U/lb in feed, Day 10
[20] = Group B, 30 U/lb in feed, Day 14
[21] = Group B, 30 U/lb in feed, Day 17
[22] = Group B, 30 U/lb in feed, Day 21
[23] = Group B, 30 U/lb in feed, Day 24

phosphatidylinositol specific phospholipase C [Recombinant PI-PLC]
Invasion counts (mean ± standard error of the mean) ([1]; Application of Enzyme During Infection, Test 1, B. cereus PI-PLC 0.0403 U/mL, recombinant 0.261 U/mL, listed as PI-PLC from Recombinant B. megateriaum): 16 ± 2^c | Invasion counts (mean ± standard error of the mean) [1, 4]: 36 ± 3^b | Invasion counts (mean ± standard error of the mean) [1, 5]: 18 ± 1^bc | Invasion counts (mean ± standard error of the mean) [1, 6]: 9 ± 2^c | Invasion counts (mean ± standard error of the mean) [1, 7]: 14 ± 1^b | Invasion counts (mean ± standard error of the mean) ([1]; Cell Pretreatment with Enzyme Followed by Wash, Test 1, recombinant PI-PLC 0.0261 U/mL): 18 ± 1^ab | Invasion counts (mean ± standard error of the mean) [1, 8]: 22 ± 1^b | Invasion counts (mean ± standard error of the mean) [1, 9]: 26 ± 1^ab | Invasion counts (mean ± standard error of the mean) ([2]; Application of Enzyme During Infection, Test 1, B. cereus PI-PLC 0.0403 U/mL, recombinant 0.261 U/mL, mannanase 5100 U/mL, listed as PI-PLC from Recombinant B. megateriaum): 28 ± 2^b | Invasion counts (mean ± standard error of the mean) [2, 4]: 18 ± 1^c | Invasion counts (mean ± standard error of the mean) [2, 5]: 39 ± 4^ab | Invasion counts (mean ± standard error of the mean) [2, 6]: 29 ± 1^b | Invasion counts (mean ± standard error of the mean) [2, 7]: 30 ± 1^c | Invasion counts (mean ± standard error of the mean) [2, 8]: 15 ± 0^a | Invasion counts (mean ± standard error of the mean) [2, 9]: 17 ± 1^a | Feed (g) consumed/mouse/day AVG [3, 10]: 7.56 g | Weight (g) AVG [3, 10]: 16.67 g | Feed (g) consumed/mouse/day AVG [3, 11]: 8.31 g | Weight (g) AVG [3, 11]: 16.95 g | Feed (g) consumed/mouse/day AVG [3, 12]: 8.55 g | Weight (g) AVG [3, 12]: 17.29 g | Feed (g) consumed/mouse/day AVG [3, 13]: 7.78 g | Weight (g) AVG [3, 13]: 17.43 g | Feed (g) consumed/mouse/day AVG [3, 14]: 8.52 g | Weight (g) AVG [3, 14]: 17.64 g | Feed (g) consumed/mouse/day AVG [3, 15]: 7.89 g | Weight (g) AVG [3, 15]: 18.25 g | Feed (g) consumed/mouse/day AVG [3, 16]: 9.79 g | Weight (g) AVG [3, 16]: 18.2 g | Feed (g) consumed/mouse/day AVG [3, 17]: 6.13 g | Weight (g) AVG [3, 17]: 17.055 g | Feed (g) consumed/mouse/day AVG [3, 18]: 8.51 g | Weight (g) AVG [3, 18]: 16.91 g | Feed (g) consumed/mouse/day AVG [3, 19]: 7.93 g | Weight (g) AVG [3, 19]: 17.08 g | Feed (g) consumed/mouse/day AVG [3, 20]: 8.06 g | Weight (g) AVG [3, 20]: 17.62 g | Feed (g) consumed/mouse/day AVG [3, 21]: 8.53 g | Weight (g) AVG [3, 21]: 17.84 g | Feed (g) consumed/mouse/day AVG [3, 22]: 8.22 g | Weight (g) AVG [3, 22]: 18.62 g | Feed (g) consumed/mouse/day AVG [3, 23]: 8.3 g | Weight (g) AVG [3, 23]: 18.63 g | reduction in parasite load in the treated groups ([3]; feces at 3, 4 and 4.5 weeks post-infection, 30 or 90 U/lb): 34-54% | Parasite load (SD) Day 21 ([3]; 30 U/lb in feed): 16.2 (4.7) oocysts/100 μl | Parasite load (SD) Day 28 ([3]; 30 U/lb in feed): 23.4 (11)* oocysts/100 μl | Parasite load (SD) Day 31 ([3]; 30 U/lb in feed): 74.3 (89.7)^+ oocysts/100 μl | Percent Inhibition Day 21 ([3]; 30 U/lb in feed): 52.0% | Percent Inhibition Day 28 ([3]; 30 U/lb in feed): 54.6% | Percent Inhibition Day 31 ([3]; 30 U/lb in feed): 40.0% | Parasite load (SD) Day 21 ([3]; 90 U/lb in feed): 22.7 (11.4) oocysts/100 μl | Parasite load (SD) Day 28 ([3]; 90 U/lb in feed): 26.3 (14)* oocysts/100 μl | Parasite load (SD) Day 31 ([3]; 90 U/lb in feed): 87.5 (52.9) oocysts/100 μl | Percent Inhibition Day 21 ([3]; 90 U/lb in feed): 44.0% | Percent Inhibition Day 28 ([3]; 90 U/lb in feed): 48.9% | Percent Inhibition Day 31 ([3]; 90 U/lb in feed): 34.0%
